# Test results from patent US20120195857A1, “Hepatitis C Virus Inhibitors” (Bristol-Myers Squibb Company, priority 2010, published 2012).
# Where two headings read alike, the source gives them in different places.
# Test system: HCV 1b genotype
# Experiment: microbe, parasite or virus in culture
# Assay type: cell-based
# Conditions: Hepatitis C virus, HCV 1b genotype replicon
# Description: An HCV Replicon assay was utilized in the present disclosure, and was prepared, conducted and validated as described in commonly owned PCT/US2006/022197 and in O'Boyle et. al. Antimicrob Agents Chemother. 2005 April; 49(4):1346-53. Assay methods incorporating luciferase reporters have also been used as described (Apath.com).
# HCV-neo replicon cells and replicon cells containing resistance substitutions in the NSSA region were used to test the currently described family of compounds. […] Ranges are as follows: A =0.5 pM to 10 pM; B=11 pM to 90 pM; C=91 pM to 160 pM; D=[…] to 5 nM.
# [1] = read-out: EC50 (Effective 50% inhibitory concentration)
SMILES,EC50 (read-out: EC50 Range) [nM],EC50 [1] [nM]
COC(=O)N[C@H](C(=O)N1CCC[C@H]1c1ncc(-c2ccc(-c3ccc(-c4cnc([C@@H]5CCCN5C(=O)[C@@H](NC(=O)OC)C5CCOCC5)[nH]4)c4ccccc34)cc2)[nH]1)C1CCOCC1 [Example 2],0.011 to 0.09,–
COC(=O)N[C@H](C(=O)N1[C@@H]2C[C@@H]2C[C@H]1c1ncc(-c2ccc(-c3ccc(-c4cnc([C@@H]5C[C@H]6C[C@H]6N5C(=O)[C@@H](NC(=O)OC)C5CCOCC5)[nH]4)c4c3CCC4)cc2)[nH]1)C1CCOCC1 [Example 4],0.011 to 0.09,–
COC(=O)NC(C(=O)N1[C@@H]2C[C@@H]2C[C@H]1c1ncc(-c2ccc(-c3cc(-c4cnc([C@@H]5C[C@H]6C[C@H]6N5C(=O)[C@@H](NC(=O)OC)C(C)C)[nH]4)cc4c3CCC4)cc2)[nH]1)C(C)C (some centres unmarked) [Example 5],0.091 to 0.16,–
COC(=O)N[C@H](C(=O)N1[C@@H](C)CC[C@H]1c1ncc(-c2ccc(-c3ccc(-c4coc([C@@H]5CC[C@H](C)N5C(=O)[C@@H](NC(=O)OC)C5CCOCC5)n4)c4c3CCC4)cc2)[nH]1)C1CCOCC1 [Example 7],0.091 to 0.16,0.0942
COC(=O)N[C@H](C(=O)N1[C@@H]2C[C@@H]2C[C@H]1c1ncc(-c2ccc(-c3ccc(-c4cnc([C@@H]5C[C@H]6C[C@H]6N5C(=O)[C@@H](NC(=O)OC)C(C)C)[nH]4)c4nc[nH]c34)cc2)[nH]1)C(C)C [Example 12],0.011 to 0.09,0.0409
COC(=O)N[C@H](C(=O)N1[C@@H]2C[C@@H]2C[C@H]1c1ncc(-c2ccc(-c3ccc(-c4cnc([C@@H]5C[C@H]6C[C@H]6N5C(=O)[C@@H](NC(=O)OC)C5CCOCC5)[nH]4)c4nc[nH]c34)cc2)[nH]1)C1CCOCC1 [Example 13],0.161 to 5,4.18
COC(=O)N[C@H](C(=O)N1[C@@H](C)CC[C@H]1c1ncc(-c2ccc(-c3ccc(-c4cnc([C@@H]5CC[C@H](C)N5C(=O)[C@@H](NC(=O)OC)C5CCOCC5)[nH]4)c4nc[nH]c34)cc2)[nH]1)C1CCOCC1 [Example 14],0.161 to 5,–
COC(=O)N[C@H](C(=O)N1[C@@H]2C[C@@H]2C[C@H]1c1nc(-c2ccc(-c3ccc(-c4ccc(-c5c[nH]c([C@@H]6C[C@H]7C[C@H]7N6C(=O)[C@@H](NC(=O)OC)C(C)C)n5)cc4)c4[nH]ccc34)cc2)c[nH]1)C(C)C [Example 18],–,0.00274
